# Columns and labels:
# Rattus norvegicus [1] = assay: Anti-inflammatory activity in rat model of acute inflammation assessed as inhibition of carrageenan-induced paw oedema dosed at 10 mg/kg, po dosed 1 hr before carrageenan injection and measured 4 hrs after carrageenan injection; type: functional
# Rattus norvegicus [2] = assay: Hepato-toxicity in rat Freund's adjuvant induced arthritis model of chronic inflammation assessed as assessed as histological changes at 10 mg/kg, po dosed after 14 days from day of adjuvant injection until day 21 and measured on day 21 by hematoxylin and eosin staining based microscopy; type: organism-based; settings: in vivo, 336 h
# Rattus norvegicus [3] = assay: Renal toxicity in rat Freund's adjuvant induced arthritis model of chronic inflammation assessed as assessed as blood urea nitrogen level at 10 mg/kg, po dosed after 14 days from day of adjuvant injection until day 21 and measured on day 21 (reference value: 23.48 +/- 1.8 mg/dL); type: organism-based; settings: in vivo, 336 h
# Rattus norvegicus [4] = assay: Anti-inflammatory activity in rat Freund's adjuvant induced arthritis model of chronic inflammation assessed as inhibition of right hind paw swelling at 10 mg/kg, po dosed after 14 days from day of adjuvant injection until day 21 and measured on day 15; type: functional
# Rattus norvegicus [5] = assay: Hepato-toxicity in rat Freund's adjuvant induced arthritis model of chronic inflammation assessed as assessed as alkaline phosphatase level at 10 mg/kg, po dosed after 14 days from day of adjuvant injection until day 21 and measured on day 21 (reference value: 17.82 +/- 1.2 U); type: organism-based; settings: in vivo, 336 h
# Rattus norvegicus [6] = assay: Hepato-toxicity in rat Freund's adjuvant induced arthritis model of chronic inflammation assessed as assessed as SGOT level at 10 mg/kg, po dosed after 14 days from day of adjuvant injection until day 21 and measured on day 21 (reference value: 92.48 +/- 7.8 U/mL); type: organism-based; settings: in vivo, 336 h
# Rattus norvegicus [7] = assay: Renal toxicity in rat Freund's adjuvant induced arthritis model of chronic inflammation assessed as assessed as total albumin level at 10 mg/kg, po dosed after 14 days from day of adjuvant injection until day 21 and measured on day 21 (reference value: 1.77 +/- 0.12 g/dL); type: organism-based; settings: in vivo, 336 h
# Rattus norvegicus [8] = assay: Gastro-intestinal toxicity in rat Freund's adjuvant induced arthritis model of chronic inflammation assessed as ulcer index at 10 mg/kg, po dosed after 14 days from day of adjuvant injection until day 21 and measured on day 21; type: organism-based; settings: in vivo, 336 h
# Rattus norvegicus [9] = assay: Anti-inflammatory activity in rat Freund's adjuvant induced arthritis model of chronic inflammation assessed as inhibition of right hind paw swelling at 10 mg/kg, po dosed after 14 days from day of adjuvant injection until day 21 and measured on day 3; type: functional
# Mus musculus [10] = assay: Analgesic activity in Swiss albino mouse assessed as reduction in formalin-induced paw licking by measuring time spent on licking during phase-2 at 10 mg/kg, po dosed 1 hr before formalin challenge and measured 30 mins after formalin injection; type: functional
# Rattus norvegicus [11] = assay: Anti-inflammatory activity in rat assessed as inhibition of arachidonic acid-induced paw edema at 10 mg/kg, po dosed 30 mins before arachidonic acid injection and measured 1 hr after arachidonic acid injection; type: functional
# Rattus norvegicus [12] = assay: Anti-inflammatory activity in rat Freund's adjuvant induced arthritis model of chronic inflammation assessed as inhibition of right hind paw swelling at 10 mg/kg, po dosed after 14 days from day of adjuvant injection until day 21 and measured on day 12; type: functional
# Mus musculus [13] = assay: Analgesic activity in Swiss albino mouse assessed as reduction in formalin-induced paw licking by measuring time spent on licking during phase-1 at 10 mg/kg, po dosed 1 hr before formalin challenge and measured 30 mins after formalin injection; type: functional
# Rattus norvegicus [14] = assay: Anti-inflammatory activity in rat Freund's adjuvant induced arthritis model of chronic inflammation assessed as inhibition of right hind paw swelling at 10 mg/kg, po dosed after 14 days from day of adjuvant injection until day 21 and measured on day 21; type: functional
# Rattus norvegicus [15] = assay: Anti-inflammatory activity in rat model of acute inflammation assessed as inhibition of carrageenan-induced paw oedema dosed at 10 mg/kg, po dosed 1 hr before carrageenan injection and measured 1 hr after carrageenan injection; type: functional
# Rattus norvegicus [16] = assay: Renal toxicity in rat Freund's adjuvant induced arthritis model of chronic inflammation assessed as assessed as creatinine level at 10 mg/kg, po dosed after 14 days from day of adjuvant injection until day 21 and measured on day 21 (reference value: 0.62 +/- 0.049 mg/dL); type: organism-based; settings: in vivo, 336 h
# Rattus norvegicus [17] = assay: Anti-inflammatory activity in rat Freund's adjuvant induced arthritis model of chronic inflammation assessed as inhibition of right hind paw swelling at 10 mg/kg, po dosed after 14 days from day of adjuvant injection until day 21 and measured on day 9; type: functional
# Rattus norvegicus [18] = assay: Anti-inflammatory activity in rat Freund's adjuvant induced arthritis model of chronic inflammation assessed as inhibition of right hind paw swelling at 10 mg/kg, po dosed after 14 days from day of adjuvant injection until day 21 and measured on day 18; type: functional
# Rattus norvegicus [19] = assay: Renal toxicity in rat Freund's adjuvant induced arthritis model of chronic inflammation assessed as assessed as histological changes at 10 mg/kg, po dosed after 14 days from day of adjuvant injection until day 21 and measured on day 21 by hematoxylin and eosin staining based microscopy; type: organism-based; settings: in vivo, 336 h
# Rattus norvegicus [20] = assay: Renal toxicity in rat Freund's adjuvant induced arthritis model of chronic inflammation assessed as assessed as total protein level at 10 mg/kg, po dosed after 14 days from day of adjuvant injection until day 21 and measured on day 21 (reference value: 1.78 +/- 0.11 g/dL); type: organism-based; settings: in vivo, 336 h
# Rattus norvegicus [21] = assay: Anti-inflammatory activity in rat model of acute inflammation assessed as inhibition of carrageenan-induced paw oedema dosed at 10 mg/kg, po dosed 1 hr before carrageenan injection and measured 6 hrs after carrageenan injection; type: functional
# Rattus norvegicus [22] = assay: Anti-inflammatory activity in rat model of acute inflammation assessed as inhibition of carrageenan-induced paw oedema dosed at 10 mg/kg, po dosed 1 hr before carrageenan injection and measured 3 hrs after carrageenan injection; type: functional
# Rattus norvegicus [23] = assay: Anti-inflammatory activity in rat model of acute inflammation assessed as inhibition of carrageenan-induced paw oedema dosed at 10 mg/kg, po dosed 1 hr before carrageenan injection and measured 5 hrs after carrageenan injection; type: functional
# Mus musculus [24] = assay: Analgesic activity in Swiss albino mouse assessed as reduction in number of writhing episodes at 10 mg/kg, po measured 30 mins following acetic acid injection; type: functional; settings: 0.5 h
# Rattus norvegicus [25] = assay: Anti-inflammatory activity in rat Freund's adjuvant induced arthritis model of chronic inflammation assessed as inhibition of right hind paw swelling at 10 mg/kg, po dosed after 14 days from day of adjuvant injection until day 21 and measured on day 6; type: functional
# Rattus norvegicus [26] = assay: Anti-inflammatory activity in rat model of acute inflammation assessed as inhibition of carrageenan-induced paw oedema dosed at 10 mg/kg, po dosed 1 hr before carrageenan injection and measured 2 hrs after carrageenan injection; type: functional
# Rattus norvegicus [27] = assay: Gastro-intestinal toxicity in rat Freund's adjuvant induced arthritis model of chronic inflammation assessed as assessed as histological changes at 10 mg/kg, po dosed after 14 days from day of adjuvant injection until day 21 and measured on day 21 by hematoxylin and eosin staining based microscopy; type: organism-based; settings: in vivo, 336 h
# [28] = In-vitro antiinflammatory activity assessed as inhibition of denaturation of bovine serum albumin at 10 mg; type: functional
# Rattus norvegicus [29] = assay: Hepato-toxicity in rat Freund's adjuvant induced arthritis model of chronic inflammation assessed as assessed as SGPT level at 10 mg/kg, po dosed after 14 days from day of adjuvant injection until day 21 and measured on day 21 (reference value: 34.23 +/- 2.5 U/mL); type: organism-based; settings: in vivo, 336 h
smiles,measurement,setting,value
COc1ccc2c(c1)c(CC(=O)O)c(C)n2C(=O)c1ccc(Cl)cc1 [INDOMETHACIN],inhibition in vivo at 10 mg/kg,Rattus norvegicus [1],60%
same,Activity,Rattus norvegicus [2],Toxic
same,Activity,Rattus norvegicus [3],62.74 mg/dL
same,inhibition in vivo at 10 mg/kg,Rattus norvegicus [4],51.3%
same,Activity,Rattus norvegicus [5],26.24 U
same,Activity,Rattus norvegicus [6],121.56 U/ml
same,Activity,Rattus norvegicus [7],2.08 g/dL
same,UI,Rattus norvegicus [8],52
same,inhibition in vivo at 10 mg/kg,Rattus norvegicus [9],33.1%
same,inhibition in vivo at 10 mg/kg,Mus musculus [10],82.2%
same,inhibition in vivo at 10 mg/kg,Rattus norvegicus [11],21.1%
same,inhibition in vivo at 10 mg/kg,Rattus norvegicus [12],45.9%
same,inhibition in vivo at 10 mg/kg,Mus musculus [13],15.6%
same,inhibition in vivo at 10 mg/kg,Rattus norvegicus [14],56.8%
same,inhibition in vivo at 10 mg/kg,Rattus norvegicus [15],57.6%
same,Activity,Rattus norvegicus [16],1.84 mg/dL
same,inhibition in vivo at 10 mg/kg,Rattus norvegicus [17],42.4%
same,inhibition in vivo at 10 mg/kg,Rattus norvegicus [18],54.2%
same,Activity,Rattus norvegicus [19],Toxic
same,Activity,Rattus norvegicus [20],2.24 g/dL
same,inhibition in vivo at 10 mg/kg,Rattus norvegicus [21],57.8%
same,inhibition in vivo at 10 mg/kg,Rattus norvegicus [22],60.5%
same,inhibition in vivo at 10 mg/kg,Rattus norvegicus [23],62.6%
same,inhibition in vivo at 10 mg/kg,Mus musculus [24],77.3%
same,inhibition in vivo at 10 mg/kg,Rattus norvegicus [25],39.7%
same,inhibition in vivo at 10 mg/kg,Rattus norvegicus [26],59.5%
same,Activity,Rattus norvegicus [27],Toxic
same,inhibition,[28],84.9%
same,Activity,Rattus norvegicus [29],52.83 U/ml

# From ChEMBL document CHEMBL3608207, “Synthesis, characterization, evaluation and molecular dynamics studies of 5, 6-diphenyl-1,2,4-triazin-3(2H)-one derivatives bearing 5-substituted 1,3,4-oxadiazole as potential anti-inflammatory and analgesic agents” (Eur J Med Chem, 2015)
